Laboratory results reported in patent US20130344055A1, “ANTIMICROBIAL AGENTS” (priority 2010, published 2013).
Like-named read-outs stand apart in the source and are kept apart here.

How the values were obtained:
P. aeruginosa PAO1p = experiment: In vitro antibacterial activity (log reduction) of modified OBPgpLys fusion variants; type: cell-based; settings: 10^6 cells/ml, 30 minutes at RT
Experimental: (§1) Exponential growing Gram-negative bacterial cells (OD600 nm=0.6) were 100-fold diluted to a final density of about 10^6 cells/ml in 5 mM HEPES pH 7.4 and incubated for 30 minutes at room temperature without shaking with the different modified OBPgpLYS variants (in Elution Buffer in an end concentration of 1500 nM). After incubation cell suspensions and as a control untreated bacterial cells without any added modified OBPgpLYS variant were diluted three times (respectively 10^5-10^4-10^3 cells/ml) in 1× concentrated PBS buffer and 100 μl of each dilution was plated out on LB-medium. […] All samples were replicated in threefold. Averages +/− standard deviations are represented.
(§2) The production of OBPgpLys with two peptide stretches is described above in Example 1. Moreover, the purification of the fusion proteins and the antimicrobial activity assay was performed as described already in Example 1.

P. putida G1 = experiment: as above; type: cell-based; settings: 10^6 cells/ml, 30 minutes at RT
Experimental: as §1, §2

E. coli XL1 blue = type: cell-based; settings: for Average log reduction, E. coli. X1-1: Table 9, with EDTA 0.5 mM
Experimental: (§3) . After incubation cell suspensions and as a control untreated bacterial cells without any added modified OBPgpLYS variant were diluted three times (respectively 10^5-10^4-10^3 cells/ml) in 1× concentrated PBS buffer and 100 μl of each dilution was plated out on LB-medium. […] All samples were replicated in threefold. Averages +/− standard deviations are represented.
as §2

S. typhimurium LT2 = experiment: In vitro antibacterial activity (log reduction) of modified OBPgpLys fusion variants; type: cell-based, Salmonella typhimurium; settings: 10^6 cells/ml, 30 minutes at RT; for Average log reduction, Salmonella typhimurium LT2: Table 9, with EDTA 0.5 mM; for Average log reduction, S. typhimurium LT2: 1500 nM protein
Experimental: as §3, with “After” for “. After”
as §2

Staphylococcus bacteria = experiment: In vitro antibacterial activity of Lysostaphin and LysK fusion variants; type: cell-based; settings: with EDTA 0.5 mM, 10^6 cells/ml, 30 minutes at RT
[1] = with EDTA 0.5 mM (B), 1500 nM protein
[2] = without EDTA (A), 1500 nM protein
[3] = 10^6 cells/ml, 30 minutes at RT
[4] = with EDTA 0.5 mM (B), 1500 nM protein, 10^6 cells/ml, 30 minutes at RT
[5] = without EDTA (A), 1500 nM protein, 10^6 cells/ml, 30 minutes at RT

Row | Molecule | Average log reduction, P. aeruginosa PAO1p (P. aeruginosa PAO1p; [1]) [log] | Average log reduction, P. putida G1 (P. putida G1; [1]) [log] | Average log reduction, E. coli XL1 blue (E. coli XL1 blue) [log] | Average log reduction, P. aeruginosa PAO1p (P. aeruginosa PAO1p; Table 9, with EDTA 0.5 mM) | Average log reduction, P. aeruginosa PAO1p (P. aeruginosa PAO1p; [2]) [log] | Average log reduction, P. putida G1 (P. putida G1; Table 9, with EDTA 0.5 mM) | Average log reduction, P. putida G1 (P. putida G1; [2]) [log] | Average log reduction, E. coli. X1-1 (E. coli XL1 blue; [3]) | Average log reduction, E. coli XL1 blue (E. coli XL1 blue; [4]) [log] | Average log reduction, E. coli XL1 blue (E. coli XL1 blue; [5]) [log] | Average log reduction, Salmonella typhimurium LT2 (S. typhimurium LT2) | Average log reduction, S. typhimurium LT2 (S. typhimurium LT2; with EDTA 0.5 mM (B)) [log] | Average log reduction, S. typhimurium LT2 (S. typhimurium LT2; without EDTA (A)) [log] | Average log reduction, Staphylococcus (Staphylococcus bacteria; Lysostaphin variants) | Average log reduction, Staphylococcus (Staphylococcus bacteria; LysK variants)
1 | O=C(O)CN(CCN(CC(=O)O)CC(=O)O)CC(=O)O [EDTA, reference compound] | 1.82 | 0.65 | 0.85 | – | – | – | – | – | – | – | – | – | – | – | –
2 | Lycotoxin1-PK-OBPgpLYS: antimicrobial peptide Lycotoxin 1, then PK, N-terminally fused to endolysin OBPgpLys | 3.73 | 2.26 | – | +++ (+++: 4 or more logs) | 0.08 | ++ (++: 2-3 log) | 0.56 | ++ (++: 2-3 log) | 0.90 | 0.41 | + (+: 1 log) | 0.29 | 0.17 | – | –
3 | Lysostaphin-Sarcotoxin IA: Lysostaphin fusion variant with one peptide stretch, Sarcotoxin IA, C-terminal | – | – | – | – | – | – | – | – | – | – | – | – | – | ++ (++: 2-3 log) | –
4 | Lysostaphin: bacteriocin degrading Staphylococcus cell walls | – | – | – | – | – | – | – | – | – | – | – | – | – | + (+: 1 log) | –
5 | OBPgpLYS: endolysin of Pseudomonas putida phage OBP, without peptide stretch | – | – | – | + (+: 1 log) | – | + (+: 1 log) | – | + (+: 1 log) | – | – | + (+: 1 log) | – | – | – | –
6 | PK-Pentapeptide-OBPgplys: polycationic peptide PK, then hydrophobic pentapeptide FFVAP, N-terminally fused to endolysin OBPgpLys | 4.00 | 3.24 | – | +++ (+++: 4 or more logs) | 0.95 | +++ (+++: 4 or more logs) | 0.80 | ++ (++: 2-3 log) | 2.12 | 1.69 | + (+: 1 log) | 0.42 | 0.22 | – | –
7 | PK-α4-OBPgpLys: polycationic peptide PK, then α4-helix of T4-lysozyme, N-terminally fused to endolysin OBPgpLys | 5.07 | 2.97 | – | +++ (+++: 4 or more logs) | 1.10 | ++ (++: 2-3 log) | 0.01 | ++ (++: 2-3 log) | 0.86 | 0.54 | + (+: 1 log) | 0.29 | 0.23 | – | –
8 | Parasin1-PK-OBPgpLys: antimicrobial peptide Parasin 1, then PK, N-terminally fused to endolysin OBPgpLys | 4.92 | 2.32 | – | +++ (+++: 4 or more logs) | 0.75 | ++ (++: 2-3 log) | 0.16 | ++ (++: 2-3 log) | 1.00 | 0.70 | + (+: 1 log) | 0.28 | 0.27 | – | –
9 | Sarcotoxin IA-Lysostaphin: Lysostaphin fusion variant with one peptide stretch, Sarcotoxin IA, N-terminal | – | – | – | – | – | – | – | – | – | – | – | – | – | ++ (++: 2-3 log) | –
10 | Walmagh1-PK-OBPgpLYS: hydrophobic peptide Walmagh 1, then PK, N-terminally fused to endolysin OBPgpLys | 3.66 | 3.22 | – | – | 0.20 | – | 0.29 | – | 1.70 | 1.46 | – | 0.17 | 0.12 | – | –
11 | Walmagh2-PK-OBPgplys: amphiphatic peptide Walmagh 2, then PK, N-terminally fused to endolysin OBPgpLys | 3.91 | 2.60 | – | +++ (+++: 4 or more logs) | 0.57 | ++ (++: 2-3 log) | 0.00 | ++ (++: 2-3 log) | 1.86 | 1.68 | + (+: 1 log) | 0.25 | 0.17 | – | –
12 | α4-PK-OBPgpLys: α4-helix of T4-lysozyme, then polycationic peptide PK, N-terminally fused to endolysin OBPgpLys | 5.23 | 2.98 | – | +++ (+++: 4 or more logs) | 0.59 | ++ (++: 2-3 log) | 0.02 | + (+: 1 log) | 0.58 | 0.55 | + (+: 1 log) | 0.35 | 0.22 | – | –
13 | PK2-LysK: LysK fusion variant with one peptide stretch, PK2 (protein) MKRKKRKKRKKRKKRKKRKAKTQAEINKRLDAYAKGTVDSPYRVKKATSYDPSFGVMEAGAIDADGYYHAQCQDLITDYVLWLTDNKVRTWGNAKDQIKQSYGTGFKIHENKPSTVPKKGWIAVFTSGSYEQWGHIGIVYDGGNTSTFTILEQNWNGYANKKPTKRVDNYYGLTHFIEIPVKAGTTVKKETAKKSASKTPAPKKKATLKVSKNHINYTMDKRGKKPEGMVIHNDAGRSSGQQYENSLANAGYARYANGIAHYYGSEGYVWEAIDAKNQIAWHTGDGTGANSGNFRFAGIEVCQSMSASDAQFLKNEQAVFQFTAEKFKEWGLTPNRKTVRLHMEFVPTACPHRSMVLHTGFNPVTQGRPSQAIMNKLKDYFIKQIKNYMDKGTSSSTVVKDGKTSSASTPATRPVTGSWKKNQYGTWYKPENATFVNGNQPIVTRIGSPFLNAPVGGNLPAGATIVYDEVCIQAGHIWIGYNAYNGNRVYCPVRTCQGVPPNQIPGVAWGVFK | – | – | – | – | – | – | – | – | – | – | – | – | – | – | ++ (++: 2-3 log)
14 | LysK: endolysin LysK (protein, Staphylococcus aureus Phage K) MAKTQAEINKRLDAYAKGTVDSPYRVKKATSYDPSFGVMEAGAIDADGYYHAQCQDLITDYVLWLTDNKVRTWGNAKDQIKQSYGTGFKIHENKPSTVPKKGWIAVFTSGSYEQWGHIGIVYDGGNTSTFTILEQNWNGYANKKPTKRVDNYYGLTHFIEIPVKAGTTVKKETAKKSASKTPAPKKKATLKVSKNHINYTMDKRGKKPEGMVIHNDAGRSSGQQYENSLANAGYARYANGIAHYYGSEGYVWEAIDAKNQIAWHTGDGTGANSGNFRFAGIEVCQSMSASDAQFLKNEQAVFQFTAEKFKEWGLTPNRKTVRLHMEFVPTACPHRSMVLHTGFNPVTQGRPSQAIMNKLKDYFIKQIKNYMDKGTSSSTVVKDGKTSSASTPATRPVTGSWKKNQYGTWYKPENATFVNGNQPIVTRIGSPFLNAPVGGNLPAGATIVYDEVCIQAGHIWIGYNAYNGNRVYCPVRTCQGVPPNQIPGVAWGVFK | – | – | – | – | – | – | – | – | – | – | – | – | – | – | + (+: 1 log)
